Laboratory results as given in patent publication US8273774B2, “Phenoxypyridinylamide compounds” (AstraZeneca AB, priority 2008, dated 2012).
Where a name gives a salt, the structure may show the parent alone.

What follows are compounds tested against recombinant Human Phosphodiesterase B2 (PDE4B2) (Homo sapiens, UniProt Q07343) (assay: Human Phosphodiesterase B2 Radiometric Assay). Conditions: 0.1 μg/mL recombinant PDE4B2; preincubated at 30 C for 30 min; [3H]cyclic AMP 8 nM, stopped after 20 min; yttrium silicate SPA beads; read-out: PDE4B2 pIC50 (converted).
recombinant Human Phosphodiesterase B2 (PDE4B2), sequence (Q07343 1-564 isoform Q07343-2): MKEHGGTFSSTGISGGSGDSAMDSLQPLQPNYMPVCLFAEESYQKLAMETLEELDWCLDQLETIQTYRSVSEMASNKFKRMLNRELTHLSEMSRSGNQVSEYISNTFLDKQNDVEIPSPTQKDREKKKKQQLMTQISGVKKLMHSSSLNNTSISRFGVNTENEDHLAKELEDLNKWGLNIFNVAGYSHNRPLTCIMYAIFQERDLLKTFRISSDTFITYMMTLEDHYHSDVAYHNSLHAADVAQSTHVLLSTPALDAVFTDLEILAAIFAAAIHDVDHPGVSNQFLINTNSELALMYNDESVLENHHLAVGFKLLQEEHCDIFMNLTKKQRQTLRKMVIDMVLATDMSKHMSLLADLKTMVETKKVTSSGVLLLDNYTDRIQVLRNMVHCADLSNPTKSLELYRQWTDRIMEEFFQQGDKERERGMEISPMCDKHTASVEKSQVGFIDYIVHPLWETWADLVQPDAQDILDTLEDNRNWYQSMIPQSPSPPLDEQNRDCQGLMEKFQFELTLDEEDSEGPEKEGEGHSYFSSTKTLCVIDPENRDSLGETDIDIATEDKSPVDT
Type: biochemical
Method in brief: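 Compounds preincubated 30 min at 30 C with 0.1 μg/mL recombinant PDE4B2 in 50 mM HEPES pH 7.5, 8.3 mM MgCl2, 1.7 mM EGTA, 0.01% Brij 35.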

| Structure (SMILES) | IC50 |
| --- | --- |
| C[C@@H]1CN(CCCc2ccc(-c3cccc(Oc4ncc(F)cc4C(=O)N[C@H]4CC[C@@H](NC(=O)c5cn6c(n5)CCCC6)CC4)c3)cc2)C[C@H](C)N1 [Example 104, N-((1s,4s)-4-(2-(4′-(3-((3S,5R)-3,5-dimethylpiperazin-1-yl)propyl)biphenyl-3-yloxy)-5-fluoronicotinamido)cyclohexyl)-5,6,7,8-tetrahydroimidazo[1,2-a]pyridine-2-carboxamide] | 0.0316 nM |
| CN(C)CCN(C)Cc1ccc(-c2cccc(Oc3ncc(F)cc3C(=O)N[C@H]3CC[C@@H](NC(=O)c4cn5c(n4)CCCC5)CC3)c2)cc1 [Example 105, N-((1s,4s)-4-(2-(4′-(((2-(dimethylamino)ethyl)(methyl)amino)methyl)biphenyl-3-yloxy) 5-fluoronicotinamido)cyclohexyl)-5,6,7,8-tetrahydroimidazo[1,2-a]pyridine-2-carboxamide] | 0.631 nM |
| COc1c(CN2C[C@@H](C)N[C@@H](C)C2)cccc1-c1cccc(Oc2ncc(F)cc2C(=O)N[C@H]2CC[C@@H](NC(=O)c3cc(C)n(C)n3)CC2)c1 [Example 106, N-((1s,4s)-4-(1,5-dimethyl-1H-pyrazole-3-carboxamido)cyclohexyl)-2-(3′-(((3S,5R)-3,5-dimethylpiperazin-1-yl)methyl)-2′-methoxybiphenyl-3-yloxy)-5-fluoronicotinamide] | 0.251 nM |
| Cc1cc(C(=O)N[C@H]2CC[C@@H](NC(=O)c3cc(F)cnc3Oc3cccc(-c4cccc(CN5C[C@@H](C)N[C@@H](C)C5)c4Cl)c3)CC2)nn1C [Example 107, 2-(2′-chloro-3′-(((3S,5R)-3,5-dimethylpiperazin-1-yl)methyl)biphenyl-3-yloxy)-N-((1s,4s)-4-(1,5-dimethyl-1H-pyrazole-3-carboxamido)cyclohexyl)-5-fluoronicotinamide] | 0.158 nM |
| Cc1cc(C(=O)N[C@H]2CC[C@@H](NC(=O)c3cc(F)cnc3Oc3cccc(-c4cccc(CCCN5CCNCC5)c4)c3)CC2)nn1C [Example 108, N-((1s,4s)-4-(1,5-dimethyl-1H-pyrazole-3-carboxamido)cyclohexyl)-5-fluoro-2-(3′-(3-(piperazin-1-yl)propyl)biphenyl-3-yloxy)nicotinamide] | 0.02 nM |
| Cc1cccc2nc(C(=O)N[C@H]3CC[C@@H](NC(=O)c4cc(F)cnc4Oc4cccc(-c5ccc(CN6CCC(N7CCCC7)CC6)cc5)c4)CC3)cn12 [Example 109, N-((1s,4s)-4-(5-fluoro-2-(4′-((4-(pyrrolidin-1-yl)piperidin-1-yl)methyl)biphenyl-3-yloxy)nicotinamido)cyclohexyl)-5-methylimidazo[1,2-a]pyridine-2-carboxamide] | 0.0631 nM |
| CN(C)CCN(C)Cc1ccc(-c2cccc(Oc3ncc(F)cc3C(=O)N[C@H]3CC[C@@H](NC(=O)c4cc5n(n4)CCCC5)CC3)c2)cc1 [Example 110, N-((1s,4s)-4-(2-(4′-(((2-(dimethylamino)ethyl)(methyl)amino)methyl)biphenyl-3-yloxy)-5-fluoronicotinamido)cyclohexyl)-4,5,6,7-tetrahydropyrazolo[1,5-a]pyridine-2-carboxamide hydrochloride] | 0.2 nM |
| Cc1nc(C(=O)N[C@H]2CC[C@@H](NC(=O)c3cc(F)cnc3Oc3cccc(-c4ccc(CCN5CCC(N6CCCC6)CC5)cc4)c3)CC2)cs1 [Example 112, N-((1s,4s)-4-(5-fluoro-2-(4′-(2-(4-(pyrrolidin-1-yl)piperidin-1-yl)ethyl)biphenyl-3-yloxy)nicotinamido)cyclohexyl)-2-methylthiazole-4-carboxamide] | 0.0398 nM |
| C[C@@H]1CN(Cc2ccc(-c3cccc(Oc4ncc(F)cc4C(=O)N[C@H]4CC[C@@H](NC(=O)c5cc6n(n5)CCCC6)CC4)c3)cc2)C[C@H](C)N1 [Example 113, N-((1s,4s)-4-(2-(4′-(((3S,5R)-3,5-dimethylpiperazin-1-yl)methyl)biphenyl-3-yloxy)-5-fluoronicotinamido)cyclohexyl)-4,5,6,7-tetrahydropyrazolo[1,5-a]pyridine-2-carboxamide] | 0.0501 nM |
| O=C(N[C@H]1CC[C@@H](NC(=O)c2cc(F)cnc2Oc2cccc(-c3ccc(CN4CCNCC4)cc3)c2)CC1)c1cc2n(n1)CCCC2 [Example 114, N-((1s,4s)-4-(5-fluoro-2-(4′-(piperazin-1-ylmethyl)biphenyl-3-yloxy)nicotinamido)cyclohexyl)-4,5,6,7-tetrahydropyrazolo[1,5-a]pyridine-2-carboxamide] | 0.158 nM |
| O=C(N[C@H]1CC[C@@H](NC(=O)c2cc(F)cnc2Oc2cccc(-c3ccc(CNCCCN4CCOCC4)cc3)c2)CC1)c1cn2cc(F)ccc2n1 [Example 115, 6-fluoro-N-((1s,4s)-4-(5-fluoro-2-(4′-((3-morpholinopropylamino)methyl)biphenyl-3-yloxy)nicotinamido)cyclohexyl)imidazo[1,2-a]pyridine-2-carboxamide] | 0.631 nM |
| Cc1cccc2nc(C(=O)N[C@H]3CC[C@@H](NC(=O)c4cc(F)cnc4Oc4cccc(-c5ccc(CCCNC(C)C)cc5)c4)CC3)cn12 [Example 116, N-((1s,4s)-4-(5-fluoro-2-(4′-(3-(isopropylamino)propyl)biphenyl-3-yloxy)nicotinamido)cyclohexyl)-5-methylimidazo[1,2-a]pyridine-2-carboxamide] | 0.0316 nM |
| O=C(N[C@H]1CC[C@@H](NC(=O)c2cc(F)cnc2Oc2cccc(-c3ccc(CCN4CCNCC4)cc3)c2)CC1)c1cn2cc(F)ccc2n1 [Example 117, 6-fluoro-N-((1s,4s)-4-(5-fluoro-2-(4′-(2-(piperazin-1-yl)ethyl)biphenyl-3-yloxy)nicotinamido)cyclohexyl)imidazo[1,2-a]pyridine-2-carboxamide] | 0.1 nM |
| O=C(N[C@H]1CC[C@@H](NC(=O)c2cc(F)cnc2Oc2cccc(-c3ccc(CCCN4CCNCC4)cc3)c2)CC1)c1cc2n(n1)CCCC2 [Example 118, N-((1s,4s)-4-(5-fluoro-2-(4′-(3-(piperazin-1-yl)propyl)biphenyl-3-yloxy)nicotinamido)cyclohexyl)-4,5,6,7-tetrahydropyrazolo[1,5-a]pyridine-2-carboxamide] | 0.0398 nM |
| Cc1nc(C(=O)N[C@H]2CC[C@@H](NC(=O)c3cc(F)cnc3Oc3cccc(-c4ccc(CN(C)C)cc4CN4CCOCC4)c3)CC2)cs1 [Example 119, N-((1s,4s)-4-(2-(4′-((dimethylamino)methyl)-2′-(morpholinomethyl)biphenyl-3-yloxy)-5-fluoronicotinamido)cyclohexyl)-2-methylthiazole-4-carboxamide] | 0.0794 nM |
| Cc1cc(C(=O)N[C@H]2CC[C@@H](NC(=O)c3cc(F)cnc3Oc3cccc(-c4ccc(CN(C)C)cc4CN4CCOCC4)c3)CC2)nn1C [Example 120, N-((1s,4s)-4-(1,5-dimethyl-1H-pyrazole-3-carboxamido)cyclohexyl)-2-(4′-((dimethylamino)methyl)-2′-(morpholinomethyl)biphenyl-3-yloxy)-5-fluoronicotinamide] | 0.0501 nM |
| O=C(N[C@H]1CC[C@@H](NC(=O)c2cc(F)cnc2Oc2cccc(-c3ccc(CCCN4CCNCC4)cc3)c2)CC1)c1cn2cc(F)ccc2n1 [Example 121, 6-fluoro-N-((1s,4s)-4-(5-fluoro-2-(4′-(3-(piperazin-1-yl)propyl)biphenyl-3-yloxy)nicotinamido)cyclohexyl)imidazo[1,2-a]pyridine-2-carboxamide] | 0.0631 nM |
| C[C@@H]1CN(Cc2ccc(-c3cccc(Oc4ncc(F)cc4C(=O)N[C@H]4CC[C@@H](NC(=O)c5cn6cc(F)ccc6n5)CC4)c3)c(CN3CCOCC3)c2)C[C@H](C)N1 [Example 122, N-((1s,4s)-4-(2-(4′-(((3S,5R)-3,5-dimethylpiperazin-1-yl)methyl)-2′-(morpholinomethyl)biphenyl-3-yloxy)-5-fluoronicotinamido)cyclohexyl)-6-fluoroimidazo[1,2-a]pyridine-2-carboxamide] | 0.0398 nM |
| Cc1cccc2nc(C(=O)N[C@H]3CC[C@@H](NC(=O)c4cc(F)cnc4Oc4cccc(-c5ccc(CN6C[C@@H](C)N[C@@H](C)C6)cc5CN5CCOCC5)c4)CC3)cn12 [Example 123, N-((1s,4s)-4-(2-(4′-(((3S,5R)-3,5-dimethylpiperazin-1-yl)methyl)-2′-(morpholinomethyl)biphenyl-3-yloxy)-5-fluoronicotinamido)cyclohexyl)-5-methylimidazo[1,2-a]pyridine-2-carboxamide] | 0.0631 nM |
| C[C@@H]1CN(Cc2ccc(-c3cccc(Oc4ncc(F)cc4C(=O)N[C@H]4CC[C@@H](NC(=O)c5cc6n(n5)CCCC6)CC4)c3)c(CN3CCOCC3)c2)C[C@H](C)N1 [Example 124, N-((1s,4s)-4-(2-(4′-(((3S,5R)-3,5-dimethylpiperazin-1-yl)methyl)-2′-(morpholinomethyl)biphenyl-3-yloxy)-5-fluoronicotinamido)cyclohexyl)-4,5,6,7-tetrahydropyrazolo[1,5-a]pyridine-2-carboxamide] | 0.0501 nM |
| C[C@@H]1CN(Cc2cc(-c3cccc(Oc4ncc(F)cc4C(=O)N[C@H]4CC[C@@H](NC(=O)c5cnn6cccnc56)CC4)c3)ccc2O)C[C@H](C)N1 [Example 125, N-((1s,4s)-4-(2-(3′-(((3S,5R)-3,5-dimethylpiperazin-1-yl)methyl)-4′-hydroxybiphenyl-3-yloxy)-5-fluoronicotinamido)cyclohexyl)pyrazolo[1,5-a]pyrimidine-3-carboxamide] | 0.0631 nM |
| Cc1cc(C(=O)N[C@H]2CC[C@@H](NC(=O)c3cc(F)cnc3Oc3cccc(-c4cccc(CCCN5C[C@@H](C)N[C@@H](C)C5)c4)c3)CC2)nn1C [Example 126, N-((1s,4s)-4-(1,5-dimethyl-1H-pyrazole-3-carboxamido)cyclohexyl)-2-(3′-(3-((3S,5R)-3,5-dimethylpiperazin-1-yl)propyl)biphenyl-3-yloxy)-5-fluoronicotinamide] | 0.0501 nM |
| O=C(N[C@H]1CC[C@@H](NC(=O)c2cc(F)cnc2Oc2cccc(-c3ccc(CCCN4CCCNCC4)cc3)c2)CC1)c1cc2n(n1)CCCC2 [Example 127, N-((1s,4s)-4-(2-(4′-(3-(1,4-diazepan-1-yl)propyl)biphenyl-3-yloxy)-5-fluoronicotinamido)cyclohexyl)-4,5,6,7-tetrahydropyrazolo[1,5-a]pyridine-2-carboxamide] | 0.0794 nM |
